Assay results from US9938257B2 (Sunshine Lake Pharma Co., Ltd., priority 2015, dated 2018).
Like-named read-outs stand apart in the source and are kept apart here.

Tests used:
[1] = Compound stability in human liver microsomes; type: in vitro ADME; settings: pH 7.4; for half-life at 5 μM: human liver microsomes 0.5 mg protein/mL, compound 5 μM, NADPH 1.0 mM, 37° C., read-out: Human T1/2; for CLint scaled at 5 μM: human liver microsomes, in vivo CLint extrapolated
Method: (§1) Human or rat liver microsomes incubations were conducted in duplicate in polypropylene tubes. The typical incubation mixtures consisted of human or rat liver microsomes (0.5 mg protein/mL), compounds of interest (5 μM) and NADPH (1.0 mM) in a total volume of 200 μL potassium phosphate buffer (PBS, 100 mM, pH 7.4). Compounds were dissolved in DMSO and diluted with PBS such that the final concentration of DMSO was 0.05%. The enzymatic reactions were commenced with the addition of protein after a 3-min preincubation and incubated in a water bath open to the air at 37° C. Reactions were terminated at various time points (0, 5, 10, 15, 30, 60 min) by adding equal volume of ice-cold acetonitrile. The samples were stored at −80° C. until LC/MS/MS assays.
(§2) The concentrations of compounds in the incubation mixtures of human or rat liver microsomes were determined by a LC/MS/MS method. The ranges of the linearity in the concentration range were determined for each tested compounds.
(§3) A parallel incubation was performed using denatured microsomes as the negative control, and reactions were terminated at various time points (0, 15, 60 min) after incubation at 37° C.
(§4) Dextromethorphan (70 μM) was selected as the positive control, and reactions were terminated at various time points (0, 5, 10, 15, 30, 60 min) after incubation at 37° C. Both positive and negative control samples were included in each assay to ensure the integrity of the microsomal incubation system.
(§5) The concentrations of compounds in human or rat liver microsome incubations were plotted as a percentage of the relevant zero time point control for each reaction. The in vivo CLint were extrapolated (ref.: Naritomi, Y.; Terashita, S.; Kimura, S.; Suzuki, A.; Kagayama, A.; and Sugiyama, Y.; Prediction of human hepatic clearance from in vivo animal experiments and in vitro metabolic studies with liver microsomes from animals and humans. Drug Metab. Dispos., 2001, 29: 1316-1324).

[2] = Compound stability in rat liver microsomes; type: in vitro ADME; settings: pH 7.4; for half-life at 5 μM: rat liver microsomes 0.5 mg protein/mL, compound 5 μM, NADPH 1.0 mM, 37° C., read-out: Rat T1/2; for CLint scaled at 5 μM: rat liver microsomes, in vivo CLint extrapolated
Method: as §1, §2, §3, §4, §5

[3] = Pharmacokinetics after intravenous and oral administration in rats; type: in vivo; settings: for F: oral bioavailability; for AUC(0-t) / half-life / Vd: rat, plasma; for Vd: read-out: Vss
Method: The compounds disclosed herein are assessed in pharmacokinetic studies in mice, rats, dogs or monkeys. The compounds are administered as a water solution, 2% HPMC+1% TWEEN®80 in water solution, 5% DMSO+5% solutol in saline, 4% MC suspension or capsule. For the intravenous administration, the animals are generally given at 0.5, 1 or 2 mg/kg dose. For the oral (p.o.) dosing, mice and rats are generally given 0.5, 1, 5 or 10 mg/kg dose, and dogs and monkeys are generally given 10 mg/kg dose. The blood samples (0.3 mL) are drawn at 0.25, 0.5, 1.0, 2.0, 3.0, 4.0, 6.0, 8.0, 12 and 24 h time points or 0.083, 0.25, 0.5, 1.0, 2.0, 4.0, 6.0, 8.0 and 24 h time points and centrifuged at 3,000 or 4000 rpm for 2 to 10 min. The plasma solutions are collected, and stored at −20° C. or −70° C. until analyzed by LC/MS/MS as described above.

Row | half-life at 5 μM [1] [min] | CLint scaled at 5 μM [1] [mL/min/kg] | half-life at 5 μM [2] [min] | CLint scaled at 5 μM [2] [mL/min/kg] | F ([3]; iv dose 1 mg/kg) [%] | AUC(0-t) ([3]; iv dosing, dose 1 mg/kg) [ng·h/mL] | half-life ([3]; iv dosing, dose 1 mg/kg) [min] | Vd ([3]; iv dosing, dose 1 mg/kg) [L/kg] | Clearance (CL) after iv dosing ([3]; iv dosing, dose 1 mg/kg) [mL/min/kg] | Structure (SMILES) | Cl/F ([3]; iv dosing, dose 1 mg/kg) [mL/min/kg] | Clearance (CL) after iv dosing ([3]; iv dosing, dose 0.5 mg/kg) [mL/min/kg] | F ([3]; iv dose 0.5 mg/kg) [%] | AUC(0-t) ([3]; iv dosing, dose 0.5 mg/kg) [ng·h/mL] | half-life ([3]; iv dosing, dose 0.5 mg/kg) [min] | Vd ([3]; iv dosing, dose 0.5 mg/kg) [L/kg]
1 | 555 | 3.13 | 3.88 | 639 | – | – | – | – | – | N#CCC(=O)N1CC2CC(Nc3nc(Nc4cnn(C5CCCNC5)c4)ncc3Cl)CC2C1 (centres unmarked) [Ex. 3, 3-(5-((5-chloro-2-((1-(piperidin-3-yl)-1H-pyrazol-4-yl)amino)pyrimidin-4-yl)amino)hexahydrocyclopenta[c]pyrrol-2(1H)-yl)-3-oxopropanenitrile] | – | – | – | – | – | –
2 | 951 | 1.83 | 68.7 | 36.1 | – | – | – | – | – | CC(=O)N1CC2CC(Nc3nc(Nc4cnn(C5CCCNC5)c4)ncc3Cl)CC2C1 (centres unmarked) [Ex. 4, 1-(5-((5-chloro-2-((1-(piperidin-3-yl)-1H-pyrazol-4-yl)amino)pyrimidin-4-yl)amino)hexahydrocyclopenta[c]pyrrol-2(1H)-yl)ethanone] | – | – | – | – | – | –
3 | 1040 | 1.66 | – | – | – | – | – | – | – | N#CCC(=O)N1CC2CC(Nc3nc(Nc4cnn(C5CCNCC5)c4)ncc3Cl)CC2C1 (centres unmarked) [Ex. 5, 3-(5-((5-chloro-2-((1-(piperidin-4-yl)-1H-pyrazol-4-yl)amino)pyrimidin-4-yl)amino)hexahydrocyclopenta[c]pyrrol-2(1H)-yl)-3-oxopropanenitrile] | – | – | – | – | – | –
4 | 660 | 2.63 | 2640 | 0.94 | – | – | – | – | – | CC(=O)N1CC2CC(Nc3nc(Nc4cnn(C5CCNCC5)c4)ncc3Cl)CC2C1 (centres unmarked) [Ex. 6, 1-(5-((5-chloro-2-((1-(piperidin-4-yl)-1H-pyrazol-4-yl)amino)pyrimidin-4-yl)amino)hexahydrocyclopenta[c]pyrrol-2(1H)-yl)ethanone] | – | – | – | – | – | –
5 | 31.4 | 55.3 | 16.2 | 153 | 36.9 | 558 | 33.6 | 1.55 | 31 | CC(=O)N1CC2CC(Nc3nc(Nc4cnn(-c5ccccn5)c4)ncc3Cl)CC2C1 (centres unmarked) [Ex. 8, 1-(5-((5-chloro-2-((1-(pyridin-2-yl)-1H-pyrazol-4-yl)amino)pyrimidin-4-yl)amino)hexahydrocyclopenta[c]pyrrol-2(1H)-yl)ethanone] | – | – | – | – | – | –
6 | – | – | – | – | 19.5 | 235 | 18 | 1.22 | 75.3 | COc1ccc(-n2cc(Nc3ncc(Cl)c(NC4CC5CN(C(C)=O)CC5C4)n3)cn2)cn1 (centres unmarked) [Ex. 11, 1-(5-((5-chloro-2-((1-(6-methoxypyridin-3-yl)-1H-pyrazol-4-yl)amino)pyrimidin-4-yl)amino)hexahydrocyclopenta[c]pyrrol-2(1H)-yl)ethanone] | – | – | – | – | – | –
7 | – | – | – | – | – | – | – | – | – | Cn1cc(Nc2ncc(Cl)c(NC3CCC4(CC3)CCN(C(=O)CC3CC3)CC4)n2)cn1 [Ex. 20, 1-(9-((5-chloro-2-((1-methyl-1H-pyrazol-4-yl)amino)pyrimidin-4-yl)amino)-3-azaspiro[5.5]undecan-3-yl)-2-cyclopropyl ethanone] | – | 24.7 | 91.2 | 348 | 42 | 1.07
8 | – | – | – | – | 22.5 | 218 | 13.2 | 0.93 | 77.7 | Cn1cc(Nc2ncc(Cl)c(NC3CC4CN(C(=O)c5ccccc5)CC4C3)n2)cn1 (centres unmarked) [Ex. 27, (5-((5-chloro-2-((1-methyl-1H-pyrazol-4-yl)amino)pyrimidin-4-yl)amino)hexahydrocyclopenta[c]pyrrol-2(1H)-yl)(phenyl)methanone] | – | – | – | – | – | –
9 | 24.2 | 72 | 3.6 | 690 | 42.0 | 168 | 22.8 | 1.99 | 99.2 | Cn1cc(Nc2ncc(Cl)c(NC3CC4CN(C(=O)Nc5ccccc5)CC4C3)n2)cn1 (centres unmarked) [Ex. 28, 5-((5-chloro-2-((1-methyl-1H-pyrazol-4-yl)amino)pyrimidin-4-yl)amino)-N-phenylhexahydrocyclopenta[c]pyrrole-2(1H)-carboxamide] | – | – | – | – | – | –
10 | 43.2 | 40.2 | 19.8 | 126 | 102.8 | 413 | 21 | 1.19 | 40.3 | Cn1cc(Nc2ncc(Cl)c(NC3CC4CN(C(=O)N5CCOCC5)CC4C3)n2)cn1 (centres unmarked) [Ex. 29, (5-((5-chloro-2-((1-methyl-1H-pyrazol-4-yl)amino)pyrimidin-4-yl)amino)hexahydrocyclopenta[c]pyrrol-2(1H)-yl)(morpholino)methanone] | – | – | – | – | – | –
11 | 69.2 | 25.1 | 30.7 | 81 | – | – | – | – | – | CC(C)(O)Cn1cc(Nc2ncc(Cl)c(NC3CC4CN(C(=O)NC5CC5)CC4C3)n2)cn1 (centres unmarked) [Ex. 36, 5-((5-chloro-2-((1-(2-hydroxy-2-methylpropyl)-1H-pyrazol-4-yl)amino)pyrimidin-4-yl)amino)-N-cyclopropylhexahydrocyclopenta[c]pyrrole-2(1H)-carboxamide] | – | – | – | – | – | –
12 | 153 | 11.3 | 375 | 6.6 | – | – | – | – | – | CC(O)Cn1cc(Nc2nccc(NC3CC4CN(C(=O)NC5CC5)CC4C3)n2)cn1 (centres unmarked) [Ex. 42, N-cyclopropyl-5-((2-((1-(2-hydroxypropyl)-1H-pyrazol-4-yl)amino)pyrimidin-4-yl)amino)hexahydrocyclopenta[c]pyrrole-2(1H)-carboxamide] | – | – | – | – | – | –

Row | Structure (SMILES) | half-life at 5 μM [1] [min] | CLint scaled at 5 μM [1] [mL/min/kg] | half-life at 5 μM [2] [min] | CLint scaled at 5 μM [2] [mL/min/kg] | F ([3]; iv dose 1 mg/kg) [%] | AUC(0-t) ([3]; iv dosing, dose 1 mg/kg) [ng·h/mL] | half-life ([3]; iv dosing, dose 1 mg/kg) [min] | Vd ([3]; iv dosing, dose 1 mg/kg) [L/kg] | Clearance (CL) after iv dosing ([3]; iv dosing, dose 1 mg/kg) [mL/min/kg] | Cl/F ([3]; iv dosing, dose 1 mg/kg) [mL/min/kg] | Clearance (CL) after iv dosing ([3]; iv dosing, dose 0.5 mg/kg) [mL/min/kg] | F ([3]; iv dose 0.5 mg/kg) [%] | AUC(0-t) ([3]; iv dosing, dose 0.5 mg/kg) [ng·h/mL] | half-life ([3]; iv dosing, dose 0.5 mg/kg) [min] | Vd ([3]; iv dosing, dose 0.5 mg/kg) [L/kg]
13 | Cn1cc(Nc2ncc(Cl)c(NC3CCC4(CC3)CCN(S(=O)(=O)C3CC3)CC4)n2)cn1 | 61 | 28.5 | 30 | 82.7 | 64.4 | 363 | 37.2 | 2.07 | – | 46.3 | – | – | – | – | –
14 | Cn1cc(Nc2ncc(Cl)c(NC3CCC4(CC3)CCN(CC(C)(C)O)CC4)n2)cn1 [Ex. 21, 1-(9-((5-chloro-2-((1-methyl-1H-pyrazol-4-yl)amino)pyrimidin-4-yl)amino)-3-azaspiro[5.5]undecan-3-yl)-2-methylpropan-2-ol] | 404 | 4.3 | 62.9 | 39.5 | 118.2 | 147 | 87.6 | 11.9 | 109 | – | – | – | – | – | –
15 | Cn1cc(Nc2ncc(Cl)c(NC3CCC4(CC3)CCN(C(=O)C3CC3)CC4)n2)cn1 [Ex. 22, (9-((5-chloro-2-((1-methyl-1H-pyrazol-4-yl)amino)pyrimidin-4-yl)amino)-3-azaspiro[5.5]undecan-3-yl)(cyclopropyl)methanone] | 65.7 | 26.5 | 3.33 | 745 | 84.6 | 746 | 33.6 | 1.21 | 22.3 | – | – | – | – | – | –
16 | CC(=O)N1CCC2(CCC(Nc3nc(Nc4cnn(C5CCNCC5)c4)ncc3Cl)CC2)CC1 [Ex. 33, 1-(9-((5-chloro-2-((1-(piperidin-4-yl)-1H-pyrazol-4-yl)amino)pyrimidin-4-yl)amino)-3-azaspiro[5.5]undecan-3-yl)ethanone] | 275 | 6.32 | 321 | 7.73 | – | – | – | – | – | – | – | – | – | – | –
